From patent US7985774B2, “Use of 3,5-seco-4-nor-cholestane derivatives for obtaining a cytoprotective drug” (Trophos, priority 2006, dated 2011)

Legend:
[1] = test system: caspase-3; experiment: Caspase-3 activity (apoptosis) after doxorubicin; format: cell-based, rabbit; conditions: doxorubicin 1 μM alone, 8 hrs; control 19±9
Experimental: (§1) Isolated ventricular cells are obtained from hearts of male New Zealand rabbits as described in A. d'Anglemont de Tassigny et al., Fund. Clin. Pharmacol, 18: 531-38, 2004. Briefly, the rabbits (2.0-2.5 kg) are anaesthetized with a pentobarbital solution (50 mg/kg) and they then receive heparin (200 IU/kg). The hearts are excised and immediately perfused, for 10-15 minutes by means of a Langendorff apparatus without recirculation with an oxygenated tyrode (calcium-free) isotonic solution (95%, 2-5% CO2) (in mM: NaCl 135, KCl 5.4, Na2PO4 0.33, MgCl2 1.0, HEPES 10, pH adjusted to 7.4 with 1N NaOH at 37° C., 280-300 mOsmol/kgH2O). Next, all the hearts are perfused for 3 minutes in the “recirculation” mode with the same calcium-free Tyrode solution (coronary flow rate, 10-15 mL/min) added with 1 mg/mL of type II collagenase and 0.28 mg/mL of XIV type protease. Finally, all the hearts are perfused in a mode without any recirculation with the same solution of Tyrode supplemented with 0.3 mM of CaCl2 for 10 min. The left ventricle is removed and cut into small pieces; cell dissociation is achieved by mild mechanical stirring. Extracellular calcium is added by increments every 15 minutes, in order to reach a physiological concentration of 1.0 mM. […]
Caspase-3 activity is used as a quantitative method for measuring apoptosis. […] The fluorogenic substrate for measuring caspase-3 activity (DEVD) is marked with the fluorochrome, 7-amino-4-methyl coumarine (AMC), which produces […] fluorescence detectable in UV light at 360/460 nm for 210 min. […]
(§2) Apoptosis is induced in isolated cardiomyocytes by 3-8 hour exposure to 1 μM of doxorubicin added into an isotonic solution containing (in mM) NaCl 110, KCl 5.4, Na2PO4 0.33, NaHCO3 25, glucose 5, MgCl2 0.8, CaCl2 1, pH adjusted to 7.4. […] The contractility of cardiomyocytes was measured every hour during the 8 hrs of exposure to doxorubicin. […]

[2] = test system: rabbit ventricular cardiomyocytes; experiment: Contractile dysfunction test induced by doxorubicin (sarcomer shortening); format: cell-based; conditions: doxorubicin 1 μM alone, after 4 hrs of exposure; control −19.49±2.06%
Experimental: A stock solution of 3,5-seco-4-nor-cholestan-5-one oxime-3-ol at a concentration of 10 mM in 100% DMSO was used.
The final concentration in DMSO was the same for all the experimental points, independently of the molecular concentrations used.
3,5-seco-4-nor-cholestan-5-one oxime-3-ol was tested at concentrations of 0.1 and 0.3 μM, diluted in a Tyrode solution (composition in mmol/L: NaCl 135, KCl 5.4, NaH2PO4 0.33, CaCl2 1.2, MgCl2 1.0, Hepes 10; pH adjusted to 7.4 with NaOH).
Isolated ventricular cells are obtained from hearts of male New Zealand rabbits as described in A. d'Anglemont de Tassigny et al., Fund. Clin. Pharmacol, 18: 531-38, 2004. Briefly, the rabbits (2.0-2.5 kg) are anaesthetized with a pentobarbital solution (50 mg/kg) and they then receive heparin (200 IU/kg). The hearts are excised and immediately perfused, for 10-15 minutes by means of a Langendorff apparatus without recirculation with an oxygenated tyrode (calcium-free) isotonic solution (95%, 2-5% CO2) (in mM: NaCl 135, KCl 5.4, Na2PO4 0.33, MgCl2 1.0, HEPES 10, pH adjusted to 7.4 with 1N NaOH at 37° C., 280-300 mOsmol/kgH2O). […]
The myocytes were selected for the study according to the following criterion: a rod-like aspect with very apparent striations and no intracellular vacuola, no spontaneous contraction when they are stimulated with 1 mM Ca^2+, and with constant rest length and contraction amplitude. The length of the sarcomers was measured by means of a video image analysis program and the data were acquired at a rate of 240 samples/s. […]
as §2

[3] = test system: rabbit ventricular cardiomyocytes; experiment: Annexin V marking of phosphatidylserine (apoptosis) after doxorubicin; format: cell-based; conditions: doxorubicin 1 μM alone, 3 hrs; control 100%
Experimental: as §1
Annexin V marking of phosphatidylserine was used as a quantitative method for measuring apoptosis by using the MiniMacs cell isolation kit (Miltenyi Biotec, Bergisch, Gladbach, Germany). […] The column is removed from the magnetic field, the cells exposing phosphatidylserine, magnetically retained, are eluted as a positive fraction and counted with a Mallassez cell counter. […]
as §2

[4] = test system: C57BL6 mice; experiment: In vivo model of myocardium infarction (coronary occlusion-reperfusion)
Experimental: The purpose of this experiment is to study in vivo the cardioprotective properties of the compounds, 3,5-seco-4-nor-cholestan-5-one oxime-3-ol and 3,5-seco-4-nor-cholestan-5-one oxime-3-N,N-dimethylglycine ester, in a murine coronary occlusion-reperfusion model.
The compounds to be tested are administered intravenously in mice, 5 minutes before reperfusion of the myocardium ischemiated beforehand. As controls, carriers of the compounds beta-cyclodextrin (hereafter called βCD) and water, respectively, are administered under the same conditions as for the compounds.
In order to determine the effect of the tested compounds, the size of the infarction is measured after 24 hour reperfusion.
6-8 week old male C57BL6 mice are anaesthetized with sodium pentobarbital (50 mg/kg i.p.) and are ventilated after intubation with an O2/CO2 (95%/5%) mixture throughout the experiment. The surface electrocardiogram (ECG) is recorded and viewed on an oscilloscope all along surgery. Under strict asepsis conditions, the jugular vein is catheterized for intravenous administration of the compounds. A left lateral thoracotomy is performed and after pericardiotomy, a major branch of the left coronary artery is localized in the latero-posterior region of the left ventricle. A prolene no. 8 suture is positioned around this artery so as to form a mobile loop for making a temporary coronary occlusion.
All the mice were subject to a 30 minute temporary coronary occlusion. Ischemia of the myocardium region is confirmed by cyanosis of the myocardium surface and a deviation of the ST segment of the electrocardiogram.
Each of the compounds (treated group, n=10) or its solvent (control group, n=10) was administered as a bolus intravenously, 5 min before lifting the 30 minutes of coronary occlusion.
3,5-seco-4-nor-cholestan-5-one oxime-3-ol, dissolved beforehand to a final concentration of 0.46 mg/ml in a 30% βCD solution in phosphate buffer prepared by saturation followed by centrifugation, is administered at a dosage of 1 mg/kg.
3,5-seco-4-nor-cholestan-5-one oxime-3-N,N-dimethylglycine ester, dissolved beforehand to a final concentration of 1.56 mg/ml in sterile water by stirring and sonication, is administered at a dosage of 3.9 mg/kg.
The same volume of carrier is administered in the corresponding control groups.
Twenty four hours after the end of coronary occlusion, the mice are re-anaesthetized with sodium pentobarbital (50 mg/kg i.p.) and heparin is administered intravenously (Choay© heparin 1,000 IU/kg). A ligature of the coronary artery is achieved at the same location having been subject to the first occlusion 24 h previously. The mice are then euthanized with a lethal saturated dose of potassium chloride and their heart is rapidly excised and then mounted through the aorta artery on a retrograde perfusion system of the Langendorff type.
A 5% Evans blue solution is perfused retrogradely so that the healthy myocardium is colored in blue; the area made ischemic during the coronary occlusion, or <<area of risk AR>> remaining uncolored by default.
The left ventricle is then cut out into 5 slices with equal thicknesses (1 mm) by means of a slicer specially designed for hearts of mice (Les Isolants de Paris, Palaiseau), which are then weighed.
These slices are incubated in a 1% triphenyltetrazolium chloride solution (TTC, Sigma, Poole, UK) at pH 7.4 for 20 min at 37° C. and then set in 4% formol. TTC has the property of coloring the non-infarcted myocardium in red, and so showing the infarcted areas in white. Each heart slice is placed under a stereo microscope for taking a high definition digital photograph.
Quantification of infarction and the area of risk is carried out by planimetry (Scion Image, Scion, Frederick Md., USA) and referred to the weight of each slice.
The area of risk (non-blue area) is expressed as a percentage of the weight of the left ventricle. The infarction sizes are expressed as a percentage of the weight of the area of risk. […]

[5] = 3.9 mg/kg i.v. bolus in water 5 min before reperfusion, 30 min occlusion, 24 h reperfusion, mean±SEM

| SMILES | caspase-3 activity [1] [fmol/min] | shortening of the peak relatively to the base line [2] [%] | Apoptosis as % of change in annexin V marking [3] [%] | Area of risk (percentage of the weight of the left ventricle) [4, 5] | Infarction size (percentage of the weight of the area of risk) [4, 5] | Infarction size reduction ([4]; 3.9 mg/kg i.v., versus carrier (water)) [%] |
| --- | --- | --- | --- | --- | --- | --- |
| COc1cccc2c1C(=O)c1c(O)c3c(c(O)c1C2=O)C[C@@](O)(C(=O)CO)C[C@@H]3O[C@H]1C[C@H](N)[C@H](O)[C@H](C)O1 [doxorubicin, reference compound] | 120 ± 15 | −53.20±7.70 | 320 | – | – | – |
| CC(C)CCC[C@@H](C)[C@H]1CC[C@H]2[C@@H]3CCC(=NO)[C@](C)(CCCOC(=O)CN(C)C)[C@H]3CC[C@]12C [3,5-seco-4-nor-cholestan-5-one oxime-3-N,N-dimethylglycine ester] | – | – | – | 8 +/− 3% | 23 +/− 9% | 42.5 |
